# Structures can show the parent of a compound that is named as a salt.
# Biological target: T1, human BCKDK (Homo sapiens, UniProt O14874)
# T1 construct: human BCKDK (residues 31-412 of the protein pre-processing); 6xHis (N, cleaved yes); MBP (N, cleaved yes); TEV protease site (ENLYFQG) (N, cleaved yes); made in house; host or cells: BL21(DE3) E. coli, co-expressed with GroEL-GroES
# Experiment: In Vitro FRET (TR-FRET) BCKDK activity assay, phosphorylation of BCKDHE1α-E2 fusion substrate
# Type: biochemical
# Details: geometric mean, two significant figures; 15 μM ATP
# Experimental: BCKDK protein was generated using a pET vector containing from N- to C-terminus: 6×His, MBP, a TEV protease site (ENLYFQG), a biotin acceptor peptide ([…]), and human BCKDK (residues 31-412 of the protein pre-processing). Protein was co-expressed with GroEL-GroES in BL21(DE3) E. coli in LB media, and protein production was induced with 0.5 mM IPTG and 0.5 mg/mL L-arabinose at an OD600 of 1 and grown for 16 h at 26° C. Bacteria were lysed using a Microfluidizer in 100 mM potassium phosphate pH 7.5, 500 mM NaCl, 0.1 mM EDTA, 1% Tween-20, 0.25% Triton X-100, 10% glycerol, 1 mM DTT, and protease inhibitors. MBP-tagged protein was purified by affinity chromatography using amylose resin, and MBP was removed from BCKDK by TEV protease incubation followed by gel filtration chromatography in 50 mM HEPES pH 7.5, 500 mM NaCl, 300 mM L-Arginine, 2 mM MgCl2, 1 mM DTT, and 10% glycerol.
# A pET vector containing E. coli LplA was expressed in BL21(DE3) E. coli in LB media, and protein production was induced with 0.75 mM IPTG at an OD600 of 1 and grown for 16 h at 30° C. Bacteria were lysed using a Microfluidizer in 50 mM sodium phosphate buffer pH 7.5, 350 mM NaCl, 1.5 mM MgCl2, and 1 mM DTT. LplA protein was precipitated from clarified lysate with 1 M ammonium sulfate and further purified by gel filtration chromatography in 50 mM sodium phosphate pH 7.5, 350 mM NaCl, 1.5 mM MgCl2, 1 mM DTT, and 10% glycerol.
# The BCKDHE1α-E2 fusion substrate was cloned into a pET vector and contained from N- to C-terminus: the lipoyl binding domain of E2 (residues 62-160 pre-processing), a TEV protease site (LENLYFQG), residues 331-345 (pre-processing) from E1α, and 6×His (Tso, S. C. et al., J Biol Chem 2014, 289 (30), 20583-20593). The fusion substrate was expressed in BL21(DE3) E. coli in LB media, and protein production was induced with 0.75 mM IPTG at an OD600 of 1 and grown for 16 h at 30° C. Bacteria were lysed using a Microfluidizer in 50 mM sodium phosphate pH 7.5, 350 mM NaCl, 10 mM imidazole, 10% glycerol, 1 mM DTT, and protease inhibitors. […] For lipoylation, fusion substrate was incubated with LplA at a 10:1 (substrate:LplA) ratio in 20 mM sodium phosphate pH 7.4, 6 mM MgCl2, 4 mM ATP, 2 mM DTT, 3 mM DL-6,8-thioctic acid at 37° C. The reaction was monitored using an Agilent 6530 Q-TOF coupled to an Agilent 1290 UPLC. The final lipoylated fusion substrate was purified by gel filtration chromatography in 50 mM HEPES pH 7.5, 350 mM NaCl, 1.5 mM MgCl2, 1 mM DTT, 10% glycerol.
# BCKDK activity was monitored by phosphorylation of a HIS-tagged fusion BCKDHE1α-E2 substrate protein as described above and was detected using a time resolved-fluorescence resonance energy transfer (TR-FRET) assay system. Compounds were spotted into a 384 well plate, and purified human BCKDK protein was added to the plated compound. After incubation, the LBD-linker-E1 phosphorylation sequence was added in the presence of 15 μM ATP. The reaction was terminated with EDTA. Phosphorylated substrate was recognized by the addition of rabbit anti-E1 phospho Ser293 antibodies (Bethyl Laboratories—A304-672A), and the TR-FRET signal was developed by addition of anti-HIS donor molecules (Europium; Perkin Elmer—AD0205, AD0110, AD0111) and anti-Rabbit acceptor molecules (Ulight; Perkin Elmer—TRF502D, TRF502M, TRF502R). Recognition of phosphorylated E1 brought donor and acceptor molecules into close proximity, and excitation at 320 nm caused energy transfer from the Europium donor to the Ulight acceptor dye, which in turn generated light at 665 nm. Signal intensity was proportional to the level of BCKDK-mediated substrate phosphorylation. Reactions were normalized to zero percent effect with DMSO and one hundred percent effect with 600 μM Radicicol, a known BCKDK inhibitor. IC50 curves were generated using ABASE software (IDBS, Boston Mass.).
row,IC50,SMILES
1,3.6 µM,"Cc1cc(F)sc1-c1nnn[nH]1 [Example 2, 5-(5-Fluoro-3-methylthiophen-2-yl)-1H-tetrazole]"
2,1.1 µM,"CCc1c(Cl)csc1-c1nnn[nH]1 [Example 3, 5-(4-Chloro-3-ethylthiophen-2-yl)-1H-tetrazole, ammonium salt]"
3,1.1 µM,"CCc1c(Br)csc1-c1nnn[nH]1 [Example 4, 5-(4-Bromo-3-ethylthiophen-2-yl)-1H-tetrazole, ammonium salt]"
4,2.5 µM,"FC(F)c1ccsc1-c1nnn[nH]1 [Example 5, 5-[3-(Difluoromethyl)thiophen-2-yl]-1H-tetrazole]"
5,1.1 µM,"FC(F)c1cc(Cl)sc1-c1nnn[nH]1 [Example 6, 5-[5-Chloro-3-(difluoromethyl)thiophen-2-yl]-1H-tetrazole]"
6,11 µM,"Clc1ccsc1-c1nnn[nH]1 [Example 7, 5-(3-chlorothiophen-2-yl)-1H-tetrazole]"
7,3.4 µM,"Clc1cc(Br)sc1-c1nnn[nH]1 [Example 8, 5-(5-Bromo-3-chlorothiophen-2-yl)-1H-tetrazole]"
8,0.81 µM,"Cc1c(-c2nnn[nH]2)sc(Cl)c1F [Example 10, 5-(5-Chloro-4-fluoro-3-methylthiophen-2-yl)-1H-tetrazole]"
9,1.9 µM,"Cc1c(-c2nnn[nH]2)sc(Cl)c1Cl [Example 11, 5-(4,5-Dichloro-3-methylthiophen-2-yl)-1H-tetrazole]"
10,2 µM,"Clc1cc(Cl)c(-c2nnn[nH]2)s1 [Example 12, 5-(3,5-Dichlorothiophen-2-yl)-1H-tetrazole, ammonium salt]"
11,> 83 µM,"CCc1cc(Br)c(-c2nnn[nH]2)s1 [Example 13, 5-(3-Bromo-5-ethylthiophen-2-yl)-1H-tetrazole]"
12,2.6 µM,"Cc1cc(Cl)c(-c2nnn[nH]2)s1 [Example 14, 5-(3-chloro-5-methylthiophen-2-yl)-1H-tetrazole]"
13,13 µM,"Oc1cc(Br)sc1-c1nnn[nH]1 [Example 15, 5-bromo-2-(1H-tetrazol-5-yl)thiophene-3-ol]"
14,4.5 µM,"COc1cc(Br)sc1-c1nnn[nH]1 [Example 16, 5-(5-bromo-3-methoxythiophen-2-yl)-1H-tetrazole]"
15,6.1 µM,"Brc1csc(-c2nnn[nH]2)c1Br [Example 17, 5-(3,4-dibromothiophen-2-yl)-1H-tetrazole]"
16,4.5 µM,"Cc1c(-c2nnn[nH]2)sc(Br)c1Br [Example 18, 5-(4,5-dibromo-3-methylthiophen-2-yl)-1H-tetrazole]"
17,4.1 µM,"Clc1cc(Br)c(-c2nnn[nH]2)s1 [Example 19, 5-(3-bromo-5-chlorothiophen-2-yl)-1H-tetrazole]"
18,3.7 µM,"Cc1cc(C(F)(F)F)sc1-c1nnn[nH]1 [Example 20, 5-[3-methyl-5-(trifluoromethyl)thiophen-2-yl]-1H-tetrazole]"

row,IC50,SMILES
1,3.6 µM,"Cc1cc(C(F)F)sc1-c1nnn[nH]1 [Example 21, 5-[5-(difluoromethyl)-3-methylthiophen-2-yl]-1H-tetrazole]"
2,11 µM,"FC(F)(F)c1ccsc1-c1nnn[nH]1 [Example 22, 5-[3-(trifluoromethyl)thiophen-2-yl]-1H-tetrazole]"
3,7.2 µM,"FC(F)(F)c1cc(Cl)sc1-c1nnn[nH]1 [Example 23, 5-[5-chloro-3-(trifluoromethyl)thiophen-2-yl]-1H-tetrazole]"
4,> 300 µM,"COc1ccsc1-c1nnn[nH]1 [Example 24, 5-(3-methoxythiophen-2-yl)-1H-tetrazole]"
5,9.8 µM,"CCc1ccsc1-c1nnn[nH]1 [Example 25, 5-(3-ethylthiophen-2-yl)-1H-tetrazole]"
6,> 300 µM,"c1cc(C2CC2)c(-c2nnn[nH]2)s1 [Example 26, 5-(3-cyclopropylthiophen-2-yl)-1H-tetrazole]"
7,4 µM,"CCc1cc(Cl)sc1-c1nnn[nH]1 [Example 27, 5-(5-chloro-3-ethylthiophen-2-yl)-1H-tetrazole]"
8,16 µM,"Fc1ccsc1-c1nnn[nH]1 [Example 28, 5-(3-fluorothiophen-2-yl)-1H-tetrazole]"
9,10 µM,"Clc1cc(C2CC2)c(-c2nnn[nH]2)s1 [Example 29, 5-(5-chloro-3-cyclopropylthiophen-2-yl)-1H-tetrazole]"
10,2.9 µM,"Fc1cc(Cl)sc1-c1nnn[nH]1 [Example 30, 5-(5-chloro-3-fluorothiophen-2-yl)-1H-tetrazole]"
11,3.6 µM,"Fc1cc(Cl)c(-c2nnn[nH]2)s1 [Example 31, 5-(3-chloro-5-fluorothiophen-2-yl)-1H-tetrazole]"
12,15 µM,"CCc1cc(C)c(-c2nnn[nH]2)s1 [Example 32, 5-(5-ethyl-3-methylthiophen-2-yl)-1H-tetrazole]"
13,3.1 µM,"Cc1cc(Br)sc1-c1nnn[nH]1 [Example 33, 5-(5-bromo-3-methylthiophen-2-yl)-1H-tetrazole]"
14,2.7 µM,"Fc1cc(Br)c(-c2nnn[nH]2)s1 [Example 34, 5-(3-bromo-5-fluorothiophen-2-yl)-1H-tetrazole]"
15,1.4 µM,"Brc1ccsc1-c1nnn[nH]1 [Example 35, 5-(3-bromothiophen-2-yl)-1H-tetrazole]"
16,6 µM,"Cc1ccsc1-c1nnn[nH]1 [Example 36, 5-(3-methylthiophen-2-yl)-1H-tetrazole]"
17,13 µM,"Oc1ccsc1-c1nnn[nH]1 [Example 37, 2-(1H-tetrazol-5-yl)thiophene-3-ol]"

# Source: patent publication US20220363673A1, “5-(Thiophen-2-YL)-1 H-Tetrazole Derivative as BCKDK Inhibitors Useful for Treating Various Diseases” (Pfizer Inc., priority 2019, published 2022)
